Laboratory results from publication PMC12818745 (ACS Chemical Neuroscience, 2025).
Where two headings read alike, the source gives them in different places.

Columns and labels:
P-glycoprotein (P-gp) = target: T1, P-glycoprotein (P-gp) (Homo sapiens, UniProt P08183); assay: Calcein-AM-assay in hMEC/D3 cells; assay type: cell-based; conditions: 1, 10, 50 and 100 μM
T1 construct: endogenous in cells; host or cells: hMEC/D3 cells
Experimental: To complement this approach and better understand whether these compounds may be substrates of such transporters, we next employed the calcein-AM-assay. This assay is particularly useful for assessing P-glycoprotein (P-gp), a major efflux transporter at the BBB that actively limits drug accumulation in the brain. To investigate potential interactions with P-gp, compounds 10, 11q-s were tested at concentrations of 1 μM, 10 μM, 50 μM and 100 μM, using the calcein-AM-assay in hMEC/D3 cells (Figure ). […] Therefore, these compounds are not expected to be P-gp substrates and may have favorable capacity to cross the BBB via passive diffusion, making them promising candidates for CNS drug development. […].
For all compounds tested, stock solutions were prepared in DMSO. Dilutions were then made with Krebs-Ringer buffer (KRB). […] Fluorescence was measured using a Tecan Infinite 200 Pro plate reader with λ excitation = 485 nm and λ emission = 535 nm. Each test compound was measured with n = 3, control and background were measured with n = 3. All fluorescence values were corrected by subtracting the background fluorescence. The increase in cellular fluorescence caused by a test compound was referred to the fluorescence of the control. […]

in vitro = conditions: for Prediction (penetration into the CNS): class from PAMPA-BBB P e; for Papp at 2.5 h: pig, PAMPA, pH 7.4
Experimental: To assess BBB permeability, a parallel artificial membrane permeability assay (PAMPA)-BBB was performed, which predicts passive BBB permeability using a brain lipid porcine membrane.
The prediction of the brain penetration was evaluated using a PAMPA-BBB. […] Next, 100 μL of these stock solutions were added to a solution of 1400 μL of EtOH and 3500 μL of PBS at pH 7.4, to reach 30% of EtOH concentration in the experiment. These solutions were filtered, using Filter PDVF membrane units (diameter 30 mm, pore size 0.45 μm, from Symta). After this, the acceptor 96-well microplate (Multiscreen, catalogue no. MAMCS9610, from Millipore) was filled with 180 μL of PBS/EtOH (70/30). […] After 5 min, 180 μL of each compound solution was added. 1–2 mg of each selected compound was dissolved in 1500 μL of EtOH and 3500 μL of PBS at pH 7.4, filtered, and then added to the donor 96-well plate to determine their ability to cross the brain barrier. After this, the donor plate was carefully put on the acceptor plate to form a “sandwich” and incubated for 2.5 h at 25 °C. During this period, the compounds diffused from the donor plate through the brain lipid membrane into the acceptor plate. Afterward, the donor plate was removed. A 96-well plate UV reader (Thermoscientific, Multiskan spectrum) was used to determine the concentration of compounds and commercial drugs in the acceptor and donor wells. Every sample was analyzed at three to five wavelengths, in three wells, and in two independent runs. […] Ten quality control compounds (previously mentioned) of known BBB permeability were included in each experiment to validate the analysis set.

[1] = target: T2, eqBChE (equine serum butyrylcholinesterase) (Equus caballus, UniProt P81908); assay: Cholinesterase inhibition assay (modified Ellman's method), eqBChE; assay type: biochemical
T2 construct: eqBChE (equine serum butyrylcholinesterase); from tissue; host or cells: equine serum
Description: (§1) Compound series A and B were initially screened for their cholinesterase activity against eeAChE (Electrophorus electricus AChE) and eqBChE (equine serum butyrylcholinesterase), using an adaptation of the Ellman’s method. […]. […] Similarly, replacing the terminal triple bond in 7l with a nitrile group reduced its activity, while replacing the O-propargyl group with an N,N-dipropargyl group in 10 enhanced the inhibition of both enzymes, particularly BChE (Table ). The installation of an additional aryl ring in 7o further improved AChE inhibition, slightly increasing selectivity toward this enzyme. […]. […]. […]. The inhibitory activity of the synthesized compounds toward eeAChE and eqBChE was evaluated spectrophotometrically through a 96-well microplate modified Ellman’s method. The solutions of both enzymes were prepared as 0.025 U/mL in phosphate buffer at pH 7, from stock solutions of 5.05 U/mL and 7.50 U/mL, respectively. The stock solutions for the target compounds (0.1 M) were prepared in dimethyl sulfoxide (DMSO). […] The reaction mixture was prepared with 100 μL of the enzyme (eeAChE or eqBChE) and 50 μL of the test compound (or DMSO/water, not exceeding 0.2% of DMSO in the wells; i.e blank samples). After 5 min of the preincubation period at 37 °C, 50 μL of ATChI or BTChI and 50 μL of DTNB were added to each well, thus initiating the enzymatic reaction. The absorbance values were measured at 415 nm, for a total of 7.5 min, at every 2.5 min, using a microplate reader (Synergy multimode reader; BioTek). […]. All experiments were performed in triplicate.

[2] = target: eeAChE (Electrophorus electricus AChE) (Electrophorus electricus, UniProt O42275); assay: Cholinesterase inhibition assay (modified Ellman's method), eeAChE; assay type: biochemical; conditions: for SI eeAChE: ratio eqBChE IC50/eeAChE IC50
Description: as §1

BChE = target: T3, BChE (Equus caballus, UniProt P81908); assay: Kinetic analysis (Lineweaver–Burk), BChE; assay type: biochemical; conditions: Lineweaver–Burk plots, substrate 50–800 μM
T3 construct: eqBChE (equine serum butyrylcholinesterase); from tissue; host or cells: equine serum
Experimental: Based on the computational predictions, derivatives 10 (series A) and 11r (series B) were initially expected to interact with both CAS and PAS of AChE and BChE. However, to better understand the actual mechanism of action of these compounds, kinetic studies were performed (Figure ). […].
[…]. The enzymatic reactions and measurements were performed using the same assay conditions, as described above for the inhibition of both enzymes. All experiments were performed in triplicate. Linear regression analysis was performed with GraphPad Prism 8.0.2 (GraphPad Software Inc.).

eeAChE (Electrophorus electricus AChE), sequence (O42275 24-633): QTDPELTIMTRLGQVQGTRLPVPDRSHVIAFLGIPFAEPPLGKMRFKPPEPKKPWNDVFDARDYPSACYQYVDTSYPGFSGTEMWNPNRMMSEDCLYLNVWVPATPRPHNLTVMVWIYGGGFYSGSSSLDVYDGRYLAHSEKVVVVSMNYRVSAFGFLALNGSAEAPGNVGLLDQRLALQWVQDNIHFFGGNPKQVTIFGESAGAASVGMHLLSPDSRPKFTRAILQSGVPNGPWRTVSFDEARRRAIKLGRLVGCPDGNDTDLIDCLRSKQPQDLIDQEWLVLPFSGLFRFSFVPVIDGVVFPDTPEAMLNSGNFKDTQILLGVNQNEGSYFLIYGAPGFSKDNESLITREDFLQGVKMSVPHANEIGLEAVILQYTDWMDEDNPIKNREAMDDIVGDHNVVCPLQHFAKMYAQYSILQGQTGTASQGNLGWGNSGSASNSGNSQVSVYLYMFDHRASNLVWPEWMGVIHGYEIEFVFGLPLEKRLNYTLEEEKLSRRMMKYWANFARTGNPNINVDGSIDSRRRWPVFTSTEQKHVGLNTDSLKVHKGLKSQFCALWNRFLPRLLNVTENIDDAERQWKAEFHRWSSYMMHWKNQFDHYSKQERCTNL
T1 sequence (P08183 whole entry): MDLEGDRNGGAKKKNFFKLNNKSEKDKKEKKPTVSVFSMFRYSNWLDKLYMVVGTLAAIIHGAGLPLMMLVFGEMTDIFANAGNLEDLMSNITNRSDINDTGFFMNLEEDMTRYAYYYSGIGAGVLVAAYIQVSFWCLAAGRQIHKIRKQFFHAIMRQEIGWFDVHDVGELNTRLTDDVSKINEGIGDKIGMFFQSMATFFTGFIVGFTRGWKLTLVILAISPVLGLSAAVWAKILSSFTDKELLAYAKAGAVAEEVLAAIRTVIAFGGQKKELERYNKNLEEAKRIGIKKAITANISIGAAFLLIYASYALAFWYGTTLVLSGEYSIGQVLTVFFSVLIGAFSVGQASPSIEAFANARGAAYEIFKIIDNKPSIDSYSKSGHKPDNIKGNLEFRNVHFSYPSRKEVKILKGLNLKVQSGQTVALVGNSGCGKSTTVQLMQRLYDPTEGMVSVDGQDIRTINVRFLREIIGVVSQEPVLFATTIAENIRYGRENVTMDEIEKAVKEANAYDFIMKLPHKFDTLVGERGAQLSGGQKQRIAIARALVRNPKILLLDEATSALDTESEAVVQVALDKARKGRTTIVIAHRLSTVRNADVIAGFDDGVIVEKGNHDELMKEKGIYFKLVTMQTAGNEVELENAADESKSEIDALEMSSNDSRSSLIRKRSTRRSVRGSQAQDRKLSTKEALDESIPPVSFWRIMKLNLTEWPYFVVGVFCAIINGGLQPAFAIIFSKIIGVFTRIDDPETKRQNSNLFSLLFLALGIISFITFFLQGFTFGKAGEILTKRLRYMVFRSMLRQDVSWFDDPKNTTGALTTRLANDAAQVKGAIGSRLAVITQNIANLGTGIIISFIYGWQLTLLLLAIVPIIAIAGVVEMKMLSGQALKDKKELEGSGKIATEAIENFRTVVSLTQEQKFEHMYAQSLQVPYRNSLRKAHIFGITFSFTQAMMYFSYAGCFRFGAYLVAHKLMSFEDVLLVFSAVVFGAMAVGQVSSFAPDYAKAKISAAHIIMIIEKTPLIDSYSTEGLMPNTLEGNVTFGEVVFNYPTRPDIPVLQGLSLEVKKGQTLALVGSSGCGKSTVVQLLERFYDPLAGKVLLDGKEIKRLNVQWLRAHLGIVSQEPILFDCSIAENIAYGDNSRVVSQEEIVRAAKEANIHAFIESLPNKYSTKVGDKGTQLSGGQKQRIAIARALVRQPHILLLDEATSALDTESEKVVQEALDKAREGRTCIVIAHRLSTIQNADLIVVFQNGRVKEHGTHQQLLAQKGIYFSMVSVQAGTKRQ
T2 sequence (P81908 whole entry): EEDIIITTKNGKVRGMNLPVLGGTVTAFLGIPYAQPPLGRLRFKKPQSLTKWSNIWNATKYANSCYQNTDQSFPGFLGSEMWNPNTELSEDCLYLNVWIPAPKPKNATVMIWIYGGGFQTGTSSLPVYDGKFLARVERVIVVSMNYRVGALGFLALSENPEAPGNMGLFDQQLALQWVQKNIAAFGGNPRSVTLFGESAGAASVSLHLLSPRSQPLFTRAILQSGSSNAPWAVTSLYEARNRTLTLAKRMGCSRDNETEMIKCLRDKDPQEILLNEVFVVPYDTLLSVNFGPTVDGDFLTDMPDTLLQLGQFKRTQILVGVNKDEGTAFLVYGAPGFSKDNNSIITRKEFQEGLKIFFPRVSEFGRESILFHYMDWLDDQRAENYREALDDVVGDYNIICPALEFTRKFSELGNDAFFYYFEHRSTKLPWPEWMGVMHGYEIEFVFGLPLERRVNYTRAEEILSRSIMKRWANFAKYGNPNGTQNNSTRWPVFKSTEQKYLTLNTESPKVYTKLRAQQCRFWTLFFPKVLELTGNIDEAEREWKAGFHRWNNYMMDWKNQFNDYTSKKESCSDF
T3 sequence (P81908 whole entry): as above

Compound: C#CCN(CC#C)c1ccccc1/C=C/c1cc(=O)c2ccccc2o1 [Compound 10, (E)-2-{2-[Di(prop-2-yn-1-yl)amino]styryl}-4H-chromen-4-one]
- Interaction with P-gp (intracellular calcein fluorescence) (P-glycoprotein (P-gp)): clear inhibitory effect on P-gp activity
- Prediction (penetration into the CNS) (in vitro): CNS+ (High BBB permeation predicted (CNS+) P e > 3.93)
- Papp at 2.5 h (in vitro): 11.6 ± 3.39 ×10⁻⁶ cm/s
- IC50 [1]: 5.9 ± 0.4 µM
- IC50 ([2]; mean ± SEM, n = 3, n.a = nonactive, IC50 determined only if inhibition higher than 50% at 20 μM): 8.7 ± 0.5 µM
- SI eeAChE [2]: 0.68
- Type of inhibition, BChE (BChE): reversible competitive inhibition

Compound: COc1ccc2c(=O)c3cc4c(cc3oc2c1)-c1cc(Cl)ccc1OC4 [Compound 11r, 2-Chloro-11-methoxy-6H,8H-chromeno[3,4-b]xanthen-8-one]
- Interaction with P-gp (intracellular calcein fluorescence) (P-glycoprotein (P-gp)): unlikely to be actively effluxed from the brain
- Prediction (penetration into the CNS) (in vitro): CNS+ (High BBB permeation predicted (CNS+) P e > 3.93)
- Papp at 2.5 h (in vitro): 7.12 ± 0.89 ×10⁻⁶ cm/s
- IC50 [1]: 6.3 ± 0.6 µM
- IC50 [2]: 2.1 ± 0.9 µM
- SI eeAChE [2]: 3.00
- Type of inhibition, BChE (BChE): reversible competitive inhibition
